In patent publication US8916711B2, “Imidazothiazole-chalcone derivatives as potential anticancer agents and process for the preparation thereof” (Council of Scientific and Industrial Research, priority 2009, dated 2014):
Where two headings read alike, the source gives them in different places.

Legend:
Type in all cases: cell-based
[1] = tested on: SNB-75; assay: NCI in vitro cytotoxicity (SRB, 48 h), CNS panel; settings: Homo sapiens; SNB-75, CNS; 48 h exposure
[2] = tested on: OVCAR-3; assay: NCI in vitro cytotoxicity (SRB, 48 h), Ovarian panel; settings: Homo sapiens; OVCAR-3, Ovarian; 48 h exposure
[3] = tested on: HT29; assay: NCI in vitro cytotoxicity (SRB, 48 h), Colon panel; settings: Homo sapiens, HT-29, 48 h exposure
[4] = tested on: Colon cancer cell lines; assay: NCI in vitro cytotoxicity, whole panel; settings: Homo sapiens; for CC50: read-out: Log10 LC50 (converted)
[5] = tested on: BT-549; assay: NCI in vitro cytotoxicity (SRB, 48 h), Breast panel; settings: Homo sapiens; BT-549, Breast; 48 h exposure
[6] = tested on: CNS cancer cell lines; assay: NCI in vitro cytotoxicity, whole panel; settings: Homo sapiens; for CC50: read-out: Log10 LC50 (converted)
[7] = tested on: NCI-H226; assay: NCI in vitro cytotoxicity (SRB, 48 h), Non-small cell lung panel; settings: Homo sapiens, 48 h exposure
[8] = tested on: MALME-3M; assay: NCI in vitro cytotoxicity (SRB, 48 h), Melanoma panel; settings: Homo sapiens, 48 h exposure
[9] = tested on: K-562; assay: NCI in vitro cytotoxicity (SRB, 48 h), Leukemia panel; settings: Homo sapiens, K562; K-562, Leukemia; 48 h exposure
[10] = tested on: A498; assay: NCI in vitro cytotoxicity (SRB, 48 h), Renal panel; settings: Homo sapiens, 48 h exposure
[11] = tested on: Ovarian cancer cell lines; assay: NCI in vitro cytotoxicity, whole panel; settings: Homo sapiens; for CC50: read-out: Log10 LC50 (converted)
[12] = tested on: CAKI-1; assay: NCI in vitro cytotoxicity (SRB, 48 h), Renal panel; settings: Homo sapiens; for GI50: CAKI-1, Renal, 48 h exposure; for IC50: CAKI-1, Table 4, read-out: Comparative efficacy
[13] = tested on: A549/ATCC; assay: NCI in vitro cytotoxicity (SRB, 48 h), Non-small cell lung panel; settings: Homo sapiens, 48 h exposure
[14] = tested on: HOP-62; assay: as above; settings: Homo sapiens; HOP-62, Non-small cell lung; 48 h exposure
[15] = tested on: CCRF-CEM; assay: NCI in vitro cytotoxicity (SRB, 48 h), Leukemia panel; settings: Homo sapiens, 48 h exposure
[16] = tested on: HCT-15; assay: NCI in vitro cytotoxicity (SRB, 48 h), Colon panel; settings: Homo sapiens; HCT-15, Colon; 48 h exposure
[17] = tested on: SF-268; assay: NCI in vitro cytotoxicity (SRB, 48 h), CNS panel; settings: Homo sapiens; SF-268, CNS; 48 h exposure
[18] = tested on: MDA-MB-468; assay: NCI in vitro cytotoxicity (SRB, 48 h), Breast panel; settings: Homo sapiens; MDA-MB-468, Breast; 48 h exposure
[19] = tested on: U251; assay: NCI in vitro cytotoxicity (SRB, 48 h), CNS panel; settings: Homo sapiens, U-251, 48 h exposure
[20] = tested on: HCC-2998; assay: NCI in vitro cytotoxicity (SRB, 48 h), Colon panel; settings: Homo sapiens
[21] = tested on: Non-small-cell lung cancer cell lines; assay: NCI in vitro cytotoxicity, whole panel; settings: Homo sapiens; for CC50: read-out: Log10 LC50 (converted)
[22] = tested on: OVCAR-4; assay: NCI in vitro cytotoxicity (SRB, 48 h), Ovarian panel; settings: Homo sapiens; OVCAR-4, Ovarian; 48 h exposure
[23] = tested on: HOP-92; assay: NCI in vitro cytotoxicity (SRB, 48 h), Non-small cell lung panel; settings: Homo sapiens; for IC50: HOP-92, Table 4, read-out: Comparative efficacy
[24] = tested on: LOX IMVI; assay: NCI in vitro cytotoxicity (SRB, 48 h), Melanoma panel; settings: Homo sapiens, 48 h exposure
[25] = tested on: T-47D; assay: NCI in vitro cytotoxicity (SRB, 48 h), Breast panel; settings: Homo sapiens, T47D, 48 h exposure
[26] = tested on: ACHN; assay: NCI in vitro cytotoxicity (SRB, 48 h), Renal panel; settings: Homo sapiens, 48 h exposure
[27] = tested on: SF-295; assay: NCI in vitro cytotoxicity (SRB, 48 h), CNS panel; settings: Homo sapiens; SF-295, CNS; 48 h exposure
[28] = tested on: OVCAR-8; assay: NCI in vitro cytotoxicity (SRB, 48 h), Ovarian panel; settings: Homo sapiens
[29] = tested on: SK-MEL-28; assay: NCI in vitro cytotoxicity (SRB, 48 h), Melanoma panel; settings: Homo sapiens; SK-MEL-28, Melanoma; 48 h exposure
[30] = tested on: MDAMB-435; assay: as above; settings: Homo sapiens, MDA-MB-435; MDAMB-435, Melanoma; 48 h exposure
[31] = tested on: DU-145; assay: NCI in vitro cytotoxicity (SRB, 48 h), Prostate panel; settings: Homo sapiens; DU-145, Prostate; 48 h exposure
[32] = tested on: SW-620; assay: NCI in vitro cytotoxicity (SRB, 48 h), Colon panel; settings: Homo sapiens; SW-620, Colon; 48 h exposure
[33] = tested on: NCI-H522; assay: NCI in vitro cytotoxicity (SRB, 48 h), Non-small cell lung panel; settings: Homo sapiens, 48 h exposure
[34] = tested on: OVCAR-5; assay: NCI in vitro cytotoxicity (SRB, 48 h), Ovarian panel; settings: Homo sapiens
[35] = tested on: NCI-H322M; assay: NCI in vitro cytotoxicity (SRB, 48 h), Non-small cell lung panel; settings: Homo sapiens, 48 h exposure
[36] = tested on: PC-3; assay: NCI in vitro cytotoxicity (SRB, 48 h), Prostate panel; settings: Homo sapiens; PC-3, Prostate; 48 h exposure
[37] = tested on: SN12C; assay: NCI in vitro cytotoxicity (SRB, 48 h), Renal panel; settings: Homo sapiens, 48 h exposure
[38] = tested on: KM12; assay: NCI in vitro cytotoxicity (SRB, 48 h), Colon panel; settings: Homo sapiens, 48 h exposure
[39] = Colon, average of six to eight cell lines, read-out: Log10 GI50 (converted)
[40] = Colon, average of six to eight cell lines
[41] = exposure period of at least 48 hrs, read-out: GI50, range over colon cell lines
[42] = CNS cell, exposure period of at least 48 hrs, read-out: GI50, range over CNS cell lines
[43] = CNS, average of six to eight cell lines, read-out: Log10 GI50 (converted)
[44] = CNS, average of six to eight cell lines
[45] = Ovarian, average of six to eight cell lines, read-out: Log10 GI50 (converted)
[46] = Ovarian, average of six to eight cell lines
[47] = exposure period of at least 48 hrs, read-out: GI50, range over ovarian cell lines
[48] = Non-small-cell lung, average of six to eight cell lines, read-out: Log10 GI50 (converted)
[49] = Non-small-cell lung, average of six to eight cell lines
[50] = exposure period of at least 48 hrs, read-out: GI50, range over lung cell lines
[51] = HOP-92, Non-small cell lung, 48 h exposure
[52] = OVCAR-8, Ovarian, 48 h exposure
[53] = OVCAR-5, Ovarian, 48 h exposure

## COc1ccc(-c2nc3sccn3c2/C=C/C(=O)c2cc(OC)c(OC)c(OC)c2)cc1 [Compound 7a, (E)-3-(6-(4-methoxyphenyl)imidazo[2,1-b]thiazol-5-yl)-1-(3,4,5-trimethoxyphenyl) prop-2-en-1-one]
[1]
  GI50: 2290 nM
[2]
  GI50: 2230 nM
[3]
  GI50: 3120 nM
[4]; [39]
  GI50: 2630 nM
[4]; [40]
  CC50: 72400 nM
[4]; [41]
  GI50: 1770 to 3450 nM
[5]
  GI50: 3460 nM
[6]; [42]
  GI50: 1660 to 3540 nM
[6]; [43]
  GI50: 2630 nM
[6]; [44]
  CC50: ≥ 100000 nM
[7]
  GI50: 2580 nM
[8]
  GI50: 5420 nM
[9]
  GI50: 1720 nM
[10]
  GI50: 2990 nM
[11]; [45]
  GI50: 1860 nM
[11]; [46]
  CC50: 70800 nM
[11]; [47]
  GI50: 210 to 4050 nM
[12]
  GI50: 1200 nM
  IC50: 1200 nM
[13]
  GI50: 2210 nM
[14]
  GI50: 2210 nM
[15]
  GI50: 3080 nM
[16]
  GI50: 3450 nM
[17]
  GI50: 2890 nM
[18]
  GI50: 2960 nM
[19]
  GI50: 3050 nM
[20]; HCC-2998, Colon, 48 h exposure
  GI50: 1770 nM
[20]; HCC-2998, colon
  GI50: 1770 nM
[21]; [48]
  GI50: 1950 nM
[21]; [49]
  CC50: 95500 nM
[21]; [50]
  GI50: 240 to 3700 nM
[22]
  GI50: 4050 nM
[23]; [51]
  GI50: 240 nM
[23]; HOP-92, non-small cell lung
  GI50: 240 nM
[23]
  IC50: 240 nM
[24]
  GI50: 2420 nM
[25]
  GI50: 2260 nM
[26]
  GI50: 4080 nM
[27]
  GI50: 2730 nM
[28]; [52]
  GI50: 2010 nM
[28]; OVCAR-8, ovarian
  GI50: 2010 nM
[29]
  GI50: 4110 nM
[30]
  GI50: 2850 nM
[31]
  GI50: 2620 nM
[32]
  GI50: 3160 nM
[33]
  GI50: 1970 nM
[34]; [53]
  GI50: 1990 nM
[34]; OVCAR-5, ovarian
  GI50: 1990 nM
[35]
  GI50: 3700 nM
[36]
  GI50: 3100 nM
[37]
  GI50: 2880 nM
[38]
  GI50: 2650 nM

## COc1cc(C(=O)/C=C/c2c(-c3ccc(F)cc3)nc3sccn23)cc(OC)c1OC [Compound 7e, (E)-3-(6-(4-fluorophenyl)imidazo[2,1-b]thiazol-5-yl)-1-(3,4,5-trimethoxyphenyl)prop-2-en-1-one]
[1]
  GI50: 2460 nM
[2]
  GI50: 2160 nM
[3]
  GI50: 2840 nM
[4]; [39]
  GI50: 2630 nM
[4]; [40]
  CC50: 38000 nM
[4]; [41]
  GI50: 2110 to 2990 nM
[5]
  GI50: 3760 nM
[6]; [42]
  GI50: 1740 to 3730 nM
[6]; [43]
  GI50: 2340 nM
[6]; [44]
  CC50: 52500 nM
[7]
  GI50: 1890 nM
[8]
  GI50: 8270 nM
[9]
  GI50: 1550 nM
[10]
  GI50: 2730 nM
[11]; [45]
  GI50: 2190 nM
[11]; [46]
  CC50: 52500 nM
[11]; [47]
  GI50: 1040 to 3780 nM
[12]
  GI50: 40 nM
  IC50: 40 nM
[13]
  GI50: 2090 nM
[14]
  GI50: 2250 nM
[15]
  GI50: 2230 nM
[16]
  GI50: 2940 nM
[17]
  GI50: 2520 nM
[18]
  GI50: 3170 nM
[19]
  GI50: 2180 nM
[20]; HCC-2998, Colon, 48 h exposure
  GI50: 2110 nM
[21]; [48]
  GI50: 2240 nM
[21]; [49]
  CC50: 56200 nM
[21]; [50]
  GI50: 1050 to 3630 nM
[22]
  GI50: 3780 nM
[23]; [51]
  GI50: 1050 nM
[23]; HOP-92, non-small cell lung
  GI50: 1050 nM
[23]
  IC50: 1050 nM
[24]
  GI50: 1850 nM
[25]
  GI50: 3250 nM
[26]
  GI50: 2960 nM
[27]
  GI50: 1800 nM
[28]; [52]
  GI50: 1980 nM
[29]
  GI50: 4190 nM
[30]
  GI50: 1820 nM
[31]
  GI50: 2450 nM
[32]
  GI50: 2990 nM
[33]
  GI50: 2320 nM
[34]; [53]
  GI50: 1920 nM
[35]
  GI50: 3630 nM
[36]
  GI50: 3430 nM
[37]
  GI50: 1880 nM
[38]
  GI50: 2300 nM
